Data set [1] has as its target T1, Liver carboxylesterase (Sus scrofa, UniProt Q29550).
T1 sequence (Q29550 whole entry): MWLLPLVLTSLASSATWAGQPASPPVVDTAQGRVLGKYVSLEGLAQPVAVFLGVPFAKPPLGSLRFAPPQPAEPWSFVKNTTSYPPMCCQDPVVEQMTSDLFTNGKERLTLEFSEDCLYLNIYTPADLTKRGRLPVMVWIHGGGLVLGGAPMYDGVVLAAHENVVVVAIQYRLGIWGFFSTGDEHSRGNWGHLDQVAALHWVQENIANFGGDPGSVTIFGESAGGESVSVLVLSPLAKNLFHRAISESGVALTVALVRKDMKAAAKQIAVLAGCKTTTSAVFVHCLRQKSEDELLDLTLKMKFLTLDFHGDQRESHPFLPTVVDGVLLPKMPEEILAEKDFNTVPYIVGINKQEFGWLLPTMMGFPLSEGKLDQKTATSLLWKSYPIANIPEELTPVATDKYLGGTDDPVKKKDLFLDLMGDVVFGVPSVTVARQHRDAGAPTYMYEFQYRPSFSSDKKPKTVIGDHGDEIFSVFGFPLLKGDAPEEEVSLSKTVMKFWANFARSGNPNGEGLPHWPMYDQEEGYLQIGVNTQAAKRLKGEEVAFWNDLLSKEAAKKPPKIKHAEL
Put plainly: Prodrug release assessed as pig liver esterase-mediated H2S and fluorescent coumarin release by measuring half life of drug at 500 uM by HPLC analysis. The format is ADME.

The nature of data set [2]: Prodrug release in Sprague-Dawley rat plasma assessed as increase in fluorescence intensity by measuring half life at 500 uM by fluorescence based analysis. The format is ADME, cell-free.
Data set [3] is described as follows: Acute toxicity in C57BL/6J mouse assessed as morphological changes in liver at 869 mg/kg, ip measured after 24 hrs by Hematoxylin-Eosin staining based analysis. The note with it: in vivo. Format: organism-based.
A short description of data set [4]: Acute toxicity in C57BL/6J mouse assessed as uric acid level in serum at 869 mg/kg, ip measured after 24 hrs. Format: organism-based. The note with it: in vivo.
A short description of data set [5]: Acute toxicity in C57BL/6J mouse assessed as total protein level at 869 mg/kg, ip measured after 24 hrs. Format: organism-based. The note with it: in vivo.
Data set [6] in a line: Acute liver toxicity in C57BL/6J mouse assessed as ALP level in serum at 869 mg/kg, ip measured after 24 hrs. Format: organism-based. The note with it: in vivo.
The nature of data set [7]: Acute liver toxicity in C57BL/6J mouse assessed as AST level in serum at 869 mg/kg, ip measured after 24 hrs. The format is organism-based. The note with it: in vivo.
Data set [8] can be described thus: Acute liver toxicity in C57BL/6J mouse assessed as gamma-GT level in liver at 869 mg/kg, ip measured after 24 hrs. The format is organism-based. The note with it: in vivo.
In data set [9] the test system is Mus musculus. The data set is described as follows: Anticoagulant activity in C57BL/6J mouse assessed as prothrombin time at 40 mg/kg, ip. The format is functional, organism-based.
Data set [10] can be described thus: Acute toxicity in C57BL/6J mouse assessed as visible bleeding in cerebral area at 869 mg/kg, ip measured after 24 hrs. The format is organism-based. The note with it: in vivo.
Data set [11] has as its system Mus musculus. The data set is described as follows: Protection against cerebral infarction in C57BL/6JNifdc mouse tMCAO model assessed as decrease in LDH level in brain at 100 umol/kg, iv measured after 24 hrs. Format: functional, organism-based. The note with it: dose 100.0 µmol/kg.
A short description of data set [12]: Acute toxicity in C57BL/6J mouse assessed as morphological changes in kidney at 869 mg/kg, ip measured after 24 hrs by Hematoxylin-Eosin staining based analysis. Format: organism-based. The note with it: in vivo.
Data set [13] has as its system Mus musculus. The data set is described as follows: Anticoagulant activity in C57BL/6J mouse assessed as tail bleeding time at 40 mg/kg, ip and measured for 40 mins. The format is functional.
The subject of data set [14] is Mus musculus. Put plainly: Acute renal toxicity in C57BL/6J mouse assessed as GSH level in kidney at 869 mg/kg, ip measured after 24 hrs. The note with it: in vivo. The format is organism-based.
Data set [15] concerns Mus musculus. The data set is described as follows: Anticoagulant activity in C57BL/6J mouse assessed as activated partial thromboplastin time at 40 mg/kg, ip. The format is functional, organism-based.
Data set [16] in a line: Acute liver toxicity in C57BL/6J mouse assessed as ALT level in serum at 869 mg/kg, ip measured after 24 hrs. Format: organism-based. The note with it: in vivo.
The nature of data set [17]: Acute toxicity in C57BL/6J mouse assessed as total bilirubin level in serum at 869 mg/kg, ip measured after 24 hrs. The format is organism-based. The note with it: in vivo.
Data set [18] deals with Mus musculus. The data set is described as follows: Acute renal toxicity in C57BL/6J mouse assessed as albumin level in serum at 869 mg/kg, ip measured after 24 hrs. The format is organism-based. The note with it: in vivo.
The test system of data set [19] is Mus musculus. Put plainly: Protection against cerebral infarction in C57BL/6JNifdc mouse tMCAO model assessed as decrease in MDA level in serum at 100 umol/kg, iv measured per mg protein after 24 hrs. The format is functional. The note with it: dose 100 µmol/kg.
Data set [20] in a line: Acute toxicity in C57BL/6J mouse assessed as SOD level at 869 mg/kg, ip measured after 24 hrs. Format: organism-based. The note with it: in vivo.
The subject of data set [21] is Mus musculus. Put plainly: Protection against cerebral infarction in C57BL/6JNifdc mouse tMCAO model assessed as decrease in infarction area in brain at 100 umol/kg, iv measured after 24 hrs by TTC staining based analysis. The note with it: dose 100.0 µmol/kg. The format is functional, organism-based.
Data set [22] is described as follows: Acute toxicity in C57BL/6J mouse assessed as creatinine level in serum at 869 mg/kg, ip measured after 24 hrs. Format: organism-based. The note with it: in vivo.
Data set [23] is described as follows: Prodrug release in C57BL/6J mouse kidney assessed as increase in fluorescence intensity at 100 umol/kg, iv measured after 6 hrs by fluorescence based analysis. The format is ADME, organism-based. The note with it: in vivo, dose 100 µmol/kg.
Data set [24] concerns the target T1, Liver carboxylesterase. The data set is described as follows: Prodrug release assessed as pig liver esterase-mediated H2S and coumarin release by measuring H2S concentration at 500 uM measured after 12 hrs by methylene blue method. The format is ADME. The note with it: isolated protein.
Data set [25] is described as follows: Prodrug release in C57BL/6J mouse brain assessed as H2S generation by measuring increase in fluorescence intensity at 100 umol/kg, iv measured after 6 hrs by Ex vivo fluorescent imaging analysis. Format: ADME, organism-based. The note with it: dose 100 µmol/kg.
Data set [26] concerns the target T1, Liver carboxylesterase. The data set is described as follows: Prodrug release assessed as pig liver esterase-mediated H2S and fluorescent coumarin release by measuring half life of drug at 500 uM by fluorescence based analysis. Format: ADME.
Data set [27] is described as follows: Prodrug release in C57BL/6J mouse liver assessed as increase in fluorescence intensity at 100 umol/kg, iv measured after 6 hrs by fluorescence based analysis. Format: ADME, organism-based. The note with it: in vivo, dose 100 µmol/kg.
Data set [28] in a line: Prodrug release in C57BL/6J mouse kidney assessed as H2S generation by measuring increase in fluorescence intensity at 100 umol/kg, iv measured after 6 hrs by Ex vivo fluorescent imaging analysis. Format: ADME, organism-based. The note with it: dose 100 µmol/kg.
Data set [29] in a line: Prodrug release in C57BL/6J mouse brain assessed as increase in fluorescence intensity at 100 umol/kg, iv measured after 6 hrs by fluorescence based analysis. Format: ADME, organism-based. The note with it: in vivo, dose 100 µmol/kg.
Data set [30] in a line: Prodrug release in Sprague-Dawley rat plasma assessed as fluorescence intensity at 500 uM measured after 24 hrs in presence of esterase inhibitor by fluorescence based analysis. Format: ADME, cell-free.
The target in data set [31] is T1, Liver carboxylesterase. The data set is described as follows: Prodrug release assessed as pig liver esterase-mediated H2S and fluorescent coumarin release at 500 uM incubated for 24 hrs in presence of esterase inhibitor by HPLC analysis. Format: ADME. The note with it: isolated protein.
Data set [32] can be described thus: Prodrug release in C57BL/6J mouse liver assessed as H2S generation by measuring increase in fluorescence intensity at 100 umol/kg, iv measured after 6 hrs by Ex vivo fluorescent imaging analysis. The note with it: dose 100 µmol/kg. Format: ADME, organism-based.
The nature of data set [33]: Prodrug release in Sprague-Dawley rat plasma assessed as fluorescence intensity at 500 uM by fluorescence based analysis. The format is ADME, cell-free.
Data set [34] can be described thus: Drug uptake in C57BL/6J mouse kidney assessed as increase in fluorescence intensity at 100 umol/kg, iv measured after 10 mins by Ex vivo fluorescent imaging analysis. Format: ADME, organism-based. The note with it: dose 100 µmol/kg.
Data set [35] can be described thus: Drug uptake in C57BL/6J mouse brain assessed as increase in fluorescence intensity at 100 umol/kg, iv measured after 10 mins by Ex vivo fluorescent imaging analysis. The note with it: dose 100 µmol/kg. The format is ADME, organism-based.
Data set [36] in a line: Drug uptake in C57BL/6J mouse liver assessed as increase in fluorescence intensity at 100 umol/kg, iv measured after 10 mins by Ex vivo fluorescent imaging analysis. Format: ADME, organism-based. The note with it: dose 100 µmol/kg.

Calls of active or inactive are those of the source. The rule behind the calls is not given here. Where only a bound is given, the exact number is not on record here.

In the case of `COc1ccc2cc3c(C)cc(=S)oc3cc2c1`, the values for the t1/2 in data set [1] and in [2] were more than 120 h and 9.06 h, respectively.
On to `S=c1ccc2cc3ccoc3cc2o1`, for which the Activity result in data set [3], in data set [4], in [5], in [6], in data set [7] and in [8] was “Non-toxic” throughout. In addition, the Activity entry in [9] was “Active; Retained The Anticoagulant Activity Of Coumarins Observed”; in [10] it was “Non-toxic”; in [12], “Non-toxic”; in [14] it was “Non-toxic”; in [15] it was “Active; Retained The Anticoagulant Activity Of Coumarins Observed”; in data set [16] it was “Non-toxic”. The Activity result is given as “Non-toxic” in [17]; “Non-toxic” in data set [18]; 14.14 nmol in data set [19]; “Non-toxic” in [20]; “Non-toxic” in data set [22]. The values for the t1/2 in data set [1] and in data set [2] were 62.89 h and 3.95 h, respectively. The result in data set [11] and in [21] was Active. For the same compound, the Time in data set [13] is reported as 16.52 min.
Turning to `CCN(CC)c1ccc2c(CN(C)O)cc(=S)oc2c1`, the t1/2 in data set [1] is more than 120 h; in data set [2], 5.78 h.
Turning to `Cc1cc(=S)oc2cc(N(C)C)ccc12`, the t1/2 is more than 120 h in [1] and 36.22 h in [2].
As to `CCN(CC)c1ccc2c(C)cc(=O)oc2c1`, in data set [13], the Time amounted to 9.58 min. In addition, the Activity entry in data set [21] is listed as “Active; Slight Decrease Compared To Thio-Coumarins (Sulfide Prodrugs)”.
As to `CCN(CC)c1ccc2c(C)cc(=S)oc2c1`, the figures for the Activity result in data set [9], in data set [15] and in data set [19] were “Active; Retained The Anticoagulant Activity Of Coumarins Observed”, “Active; Retained The Anticoagulant Activity Of Coumarins Observed” and 7.4 nmol, respectively. In addition, the t1/2 in [1] is more than 120 h. Moreover, the result in [11] and in data set [21] was Active. Further, the Time in data set [13] was 16.6 min.
Consider `Nc1ccc2c(C(F)(F)F)cc(=S)oc2c1`, for which the t1/2 was more than 120 h in data set [1] and 9.43 h in [2].
In the same order, the values of `Cc1cc(=S)oc2cc3cc(O)ccc3cc12` are more than 120 h and 52.4 h.
As to `O=c1ccc2cc3ccoc3cc2o1` [PSORALEN], the Time in [13] was found to be 22.24 min. The Activity entry in [21] is listed as “Active; Slight Decrease Compared To Thio-Coumarins (Sulfide Prodrugs)”.
`Cc1cc(=S)oc2cc(O)ccc12`: the Drug metabolism entry is “metabolite_detected” in data set [23]; 31.46 µM in data set [24]; “metabolite_detected” in data set [25]; “metabolite_detected” in data set [27]; “metabolite_detected” in [28]; “metabolite_detected” in [29]. Moreover, the values for the Drug metabolism result in data set [30], in [31] and in [32] were “metabolite_notdetected”, “metabolite_notdetected” and “metabolite_detected”, respectively. Moreover, the t1/2 in data set [26] is 50.4 h; in data set [1] it was 57.59 h; in [2], 2.52 h. Moreover, the results for the Activity result in data set [9], in data set [15] and in data set [19] were “Active; Retained The Anticoagulant Activity Of Coumarins Observed”, “Active; Retained The Anticoagulant Activity Of Coumarins Observed” and 7.59 nmol, respectively. The result in data set [11] and in data set [21] was Active. Further, the Time in data set [13] came to 10.84 min.
As to `S=c1ccc2ccc3occc3c2o1`, the t1/2 in data set [1] is 66.71 h. For the same compound, in [33], the Drug metabolism entry is listed as “metabolite_notdetected”.
In the same order, the values of `S=c1ccc2ccccc2o1` are 94.44 h and “metabolite_notdetected”.
For `Cc1cc(=O)oc2cc(O)ccc12` [HYMECROMONE], the Drug uptake result in data set [34], in data set [35] and in data set [36] was “Active” each time. Moreover, in [13], the Time is 13.99 min. In addition, in data set [21], the Activity result is “Active; Slight Decrease Compared To Thio-Coumarins (Sulfide Prodrugs)”.

These data come from ChEMBL document CHEMBL6134812, “A thiocoumarin based self-reporting sulfide prodrug strategy with a favorable safety profile” (Eur J Med Chem, 2025).
